Laboratory results from patent publication US9181238B2, “N-(pyridin-2-yl)sulfonamides and compositions thereof as protein kinase inhibitors” (NOVARTIS AG, priority 2010, dated 2015).

System: A375-luc cells
Assay: A375 Cellular Proliferation Assay
Type: cell-based
Details: Homo sapiens, A-375, 48 h; A375-luc melanoma cells (B-Raf V600E), 2 days incubation, BrightGlo luminescence; read-out: A375 CP IC50
Method: A375 Cellular Proliferation Assay
A375 is a melanoma cell line that harbors the B-Raf V600E mutation. A375-luc cells engineered to express luciferase are plated to 384-well white clear bottom plates as 1,500 cells/50 μl/well in DMEM containing 10% FBS. Compounds of the invention dissolved in 100% DMSO at appropriate concentrations are transferred to the cells by a robotic Pin Tool (100 nl). The cells are incubated for 2 days at […], then 25 μl of BrightGlo™ is added to each well and the plates are read by luminescence. The concentration of each compound for 50% inhibition (IC50) was calculated by non-linear regression using XL Fit data analysis software.

## CCCS(=O)(=O)Nc1ncc(F)c(Nc2nccnc2-c2cc(NCC)ncn2)c1F [Compound 1, N-(4-(3-(6-(Ethylamino)pyrimidin-4-yl)pyrazin-2-ylamino)-3,5-difluoropyridin-2-yl)propane-1-sulfonamide]
  IC50: 13 nM

## CCCS(=O)(=O)Nc1ncc(F)c(Nc2nccnc2-c2cc(NCCC#N)ncn2)c1F [Compound 2, N-(4-(3-(6-(2-cyanoethylamino)pyrimidin-4-yl)pyrazin-2-ylamino)-3,5-difluoropyridin-2-yl)propane-1-sulfonamide]
  IC50: 3 nM

## CCCS(=O)(=O)Nc1ncc(F)c(Nc2nccnc2-c2cc(NCCC(F)(F)F)ncn2)c1F [Compound 3, N-(3,5-difluoro-4-(3-(6-(3,3,3-trifluoropropylamino)pyrimidin-4-yl)pyrazin-2-ylamino)pyridin-2-yl)propane-1-sulfonamide]
  IC50: 21 nM

## CCCS(=O)(=O)Nc1ncc(F)c(Nc2nccnc2-c2cc(NCC(F)F)ncn2)c1F [Compound 4, N-(4-(3-(6-(2,2-difluoroethylamino)pyrimidin-4-yl)pyrazin-2-ylamino)-3,5-difluoropyridin-2-yl)propane-1-sulfonamide]
  IC50: 12 nM

## CCCS(=O)(=O)Nc1ncc(F)c(Nc2nccnc2-c2cc(NC)ncn2)c1F [Compound 5, N-(3,5-difluoro-4-(3-(6-(methylamino)pyrimidin-4-yl)pyrazin-2-ylamino)pyridin-2-yl)propane-1-sulfonamide]
  IC50: 31 nM

## CCCS(=O)(=O)Nc1ncc(F)c(Nc2nccnc2-c2cc(NCC)ncn2)c1Cl [Compound 6, N-(3-chloro-4-(3-(6-(ethylamino)pyrimidin-4-yl)pyrazin-2-ylamino)-5-fluoropyridin-2-yl)propane-1-sulfonamide]
  IC50: 121 nM

## CCCS(=O)(=O)Nc1ncc(F)c(Nc2nccnc2-c2cc(NCC(F)(F)F)ncn2)c1F [Compound 7, N-(3,5-difluoro-4-(3-(6-(2,2,2-trifluoroethylamino)pyrimidin-4-yl)pyrazin-2-ylamino)pyridin-2-yl)propane-1-sulfonamide]
  IC50: 49 nM

## CCCS(=O)(=O)Nc1ncc(F)c(Nc2nccnc2-c2cc(NCCS(C)(=O)=O)ncn2)c1F [Compound 8, N-(3,5-difluoro-4-(3-(6-(2-(methylsulfonyl)ethylamino)pyrimidin-4-yl)pyrazin-2-ylamino)pyridin-2-yl)propane-1-sulfonamide]
  IC50: 191 nM

## CCCS(=O)(=O)Nc1ncc(F)c(-c2cc3cnc(NC)nc3n(C)c2=O)c1F [Compound 10, N-(3,5-difluoro-4-(8-methyl-2-(methylamino)-7-oxo-7,8-dihydropyrido[2,3-d]pyrimidin-6-yl)pyridin-2-yl)propane-1-sulfonamide]
  IC50: 56 nM

## CCCS(=O)(=O)Nc1nccc(-c2cc3cnc(NC)nc3n(C)c2=O)c1F [Compound 11, N-(3-fluoro-4-(8-methyl-2-(methylamino)-7-oxo-7,8-dihydropyrido[2,3-d]pyrimidin-6-yl)pyridin-2-yl)propane-1-sulfonamide]
  IC50: 229 nM

## CCCS(=O)(=O)Nc1ncc(F)c(-c2cc3cnc(NC[C@H](C)NC(=O)OC)nc3n(C)c2=O)c1F [Compound 12, (S)-methyl 1-(6-(3,5-difluoro-2-(propylsulfonamido)pyridin-4-yl)-8-methyl-7-oxo-7,8-dihydropyrido[2,3-d]pyrimidin-2-ylamino)propan-2-ylcarbamate]
  IC50: 14 nM

## CCCS(=O)(=O)Nc1ncc(F)c(-c2cc3cnc(NCC)cc3n(C)c2=O)c1F [Compound 13, N-(4-(7-(Ethylamino)-1-methyl-2-oxo-1,2-dihydro-1,6-naphthyridin-3-yl)-3,5-difluoropyridin-2-yl)propane-1-sulfonamide]
  IC50: 10 nM

## CNc1ncc2cc(-c3c(F)cnc(NS(=O)(=O)CCC(F)(F)F)c3F)c(=O)n(C)c2n1 [Compound 14, N-(3,5-difluoro-4-(8-methyl-2-(methylamino)-7-oxo-7,8-dihydropyrido[2,3-d]pyrimidin-6-yl)pyridin-2-yl)-3,3,3-trifluoropropane-1-sulfonamide]
  IC50: 130 nM

## CCCS(=O)(=O)Nc1ncc(F)c(-c2cc3cnc(NCCC#N)cc3n(C)c2=O)c1F [Compound 15, N-(4-(7-(2-cyanoethylamino)-1-methyl-2-oxo-1,2-dihydro-1,6-naphthyridin-3-yl)-3,5-difluoropyridin-2-yl)propane-1-sulfonamide]
  IC50: 12 nM
